Laboratory results: patent publication US10098887B2, “Antiviral compounds and methods of use thereof” (Trana Discovery, Inc., priority 2010, dated 2018)

System: interaction between Human tRNA^Lys3 and HIV-1 genomic RNA
Experiment: Biochemical HIV-1 tRNA Inhibition Assay (AlphaScreen)
Type: binding
Parameters: key: +: showing some activity; ++: intermediate activity; +++: the highest activity
Settings: active compounds from high throughput screening, prioritized on IC50
Source text: The methods for detecting binding of the target RNA to the tRNA or the inhibition of such binding may be performed using any method for such detection. For example, the AlphaScreen® assay (Packard Instrument Company, Meriden, Conn.). AlphaScreen® technology is an “Amplified Luminescent Proximity Homogeneous Assay” method utilizing latex microbeads (250 nm diameter) containing a photosensitizer (donor beads), or chemiluminescent groups and fluorescent acceptor molecules (acceptor beads). Upon illumination with laser light at 680 nm, the photosensitizer in the donor bead converts ambient oxygen to singlet-state oxygen. The excited singlet-state oxygen molecules diffuse approximately 250 nm (one bead diameter) before rapidly decaying. If the acceptor bead is in close proximity to the donor bead (i.e., by virtue of the interaction of the target RNA and tRNA fragment), the singlet-state oxygen molecules reacts with chemiluminescent groups in the acceptor beads, which immediately transfer energy to fluorescent acceptors in the same bead. These fluorescent acceptors shift the emission wavelength to 520-620 nm, resulting in a detectable signal. Antagonists of the interaction of the target RNA with the tRNA fragment will thus inhibit the shift in emission wavelength, whereas agonists of this interaction would enhance it.
In the AlphaScreen configuration (FIG. 3) the assay is done in solution using the same RNA as the immobilization assay. The donor and acceptor beads are bound to their respective RNA's. During the screening the RNAs and test drugs/small molecules are incubated together and formation of the complex is measured using the AlphaScreen detection conditions. Utilization of the AlphaScreen assay may allow for the assay to be run at a lower RNA concentration at room temperature, and increase the stability of the complex.
HIV-1 has evolved to use Human tRNA^Lys3 as a primer for initiation of reverse transcription. Therefore, the interaction between tRNA^Lys3 and viral genomic RNA represents a potential novel target for HIV-1 drug development. Based on this hypothesis, a biochemical assay to identify inhibitors of the interaction between Human tRNA^Lys3 and HIV-1 genomic RNA was developed by TRANA Discovery and transferred to Southern Research Institute for high-throughput screening. This assay was developed as a homogeneous amplified luminescent proximity assay using AlphaScreen™ reagents from PerkinElmer. Based on this assay technology, the AlphaScreen™ luminescent signal serves as a mechanism for detecting the interaction between RNA molecules that represent Human tRNA^Lys3 and HIV-1 genomic RNA. The inhibition of the interaction between these RNA molecules by test compounds is detected as a decrease in the AlphaScreen™ luminescent signal.
A preliminary 15,000 compound screen (NINDS Diversity Set) was previously completed and the results were reported through NIAID contract N01-AI-70042. For the results described herein, a 101,000 compound library that was purchased from ChemBridge for the NIAID TAACF program was used. This library was carefully selected for diversity and minimal similarity to the 100,000 compound NINDS library, which is also planned to be screened using the TRANA Discovery Biochemical HIV-1 tRNA Inhibition Assay. The compounds were screened at a concentration of 12.5 μg/mL (first 3 batches) or 25 μg/mL (fourth and final batch).

Structure (SMILES)	Activity
Cc1cccc(CNc2ccc3c(c2)OCO3)c1 [1,3-benzodioxol-5-yl(3-methylbenzyl)amine]	+
O=C1c2ccccc2C(=O)c2c1cccc2N1CCCC1 [1-(1-pyrrolidinyl)anthra-9,10-quinone]	++
CC(=NNc1ccccc1[N+](=O)[O-])c1ccco1 [1-(2-furyl)ethanone (2-nitrophenyl)hydrazone]	+
O=C1NC(=S)N(c2cccc(Cl)c2)C(=O)C1=Cc1ccco1 [1-(3-chlorophenyl)-5-(2-furylmethylene)-2-thioxodihydro-4,6(1H,5H)-pyrimidinedione]	+
Cc1cccc(N2C(=O)C(=Cc3cccn3C)C(=O)NC2=S)c1 [1-(3-methylphenyl)-5-[(1-methyl-1H-pyrrol-2-yl)methylene]-2-thioxodihydro-4,6(1H,5H)-pyrimidinedione]	++
O=C1NC(=S)N(c2ccc(Cl)cc2)C(=O)C1=Cc1ccco1 [1-(4-chlorophenyl)-5-(2-furylmethylene)-2-thioxodihydro-4,6(1H,5H)-pyrimidinedione]	+
Cn1cccc1C=C1C(=O)NC(=S)N(c2ccc(Cl)cc2)C1=O [1-(4-chlorophenyl)-5-[(1-methyl-1H-pyrrol-2-yl)methylene]-2-thioxodihydro-4,6(1H,5H)-pyrimidinedione]	+
O=C1NC(=S)N(c2ccc(Cl)cc2)C(=O)C1=Cc1ccc([N+](=O)[O-])o1 [1-(4-chlorophenyl)-5-[(5-nitro-2-furyl)methylene]-2-thioxodihydro-4,6(1H,5H)-pyrimidinedione]	+
CCC(=NNc1ccccc1[N+](=O)[O-])c1ccc(O)cc1 [1-(4-hydroxyphenyl)-1-propanone (2-nitrophenyl)hydrazone]	++
COc1ccc(N2CCN(c3cc(Cl)ccc3[N+](=O)[O-])CC2)cc1 [1-(5-chloro-2-nitrophenyl)-4-(4-methoxyphenyl)piperazine]	+
CN(C)c1cccc2c1C(=O)c1ccccc1C2=O [1-(dimethylamino)anthra-9,10-quinone]	++
CC1(C)CC(Nc2cccc3c2C(=O)c2ccccc2C3=O)CC(C)(C)N1 [1-[(2,2,6,6-tetramethyl-4-piperidinyl)amino]anthra-9,10-quinone]	+
Nc1c(Cl)cc(N2CCCC2)c2c1C(=O)c1ccccc1C2=O [1-amino-2-chloro-4-(1-pyrrolidinyl)anthra-9,10-quinone]	+
Cc1ccc(N2CCCCC2)c2c1C(=O)c1ccccc1C2=O [1-methyl-4-(1-piperidinyl)anthra-9,10-quinone]	++
Cc1ccc(Nc2cc(C)c(O)c(C)c2)cc1 [2,6-dimethyl-4-[(4-methylphenyl)amino]phenol]	++
O=C1C(Cl)=C(NCc2ccccc2)C(=O)c2ccccc21 [2-(benzylamino)-3-chloronaphthoquinone]	+
Cc1cccc(NC2=C(N(C)C)C(=O)c3ccccc3C2=O)c1 [2-(dimethylamino)-3-[(3-methylphenyl)amino]naphthoquinone]	++
Cc1cccc(NC2=C(NCCO)C(=O)c3ccccc3C2=O)c1 [2-[(2-hydroxyethyl)amino]-3-[(3-methylphenyl)amino]naphthoquinone]	+
Cc1ccccc1NC1=C(N2CCOCC2)C(=O)c2ccccc2C1=O [2-[(2-methylphenyl)amino]-3-(4-morpholinyl)naphthoquinone]	++
O=C1C(Nc2ccc(F)c(F)c2)=C(N2CCOCC2)C(=O)c2ccccc21 [2-[(3,4-difluorophenyl)amino]-3-(4-morpholinyl)naphthoquinone]	+
O=C1C(Nc2cc(F)cc(F)c2)=C(N2CCOCC2)C(=O)c2ccccc21 [2-[(3,5-difluorophenyl)amino]-3-(4-morpholinyl)naphthoquinone]	++
O=C1C(Nc2cccc(Cl)c2)=C(N2CCOCC2)C(=O)c2ccccc21 [2-[(3-chlorophenyl)amino]-3-(4-morpholinyl)naphthoquinone]	++

Structure (SMILES)	Activity
O=C1C(Nc2cccc(F)c2)=C(N2CCCC2)C(=O)c2ccccc21 [2-[(3-fluorophenyl)amino]-3-(1-pyrrolidinyl)naphthoquinone]	++
O=C1C(Nc2cccc(O)c2)=C(N2CCCCC2)C(=O)c2ccccc21 [2-[(3-hydroxyphenyl)amino]-3-(1-piperidinyl)naphthoquinone]	+
COc1cccc(NC2=C(N3CCCCC3)C(=O)c3ccccc3C2=O)c1 [2-[(3-methoxyphenyl)amino]-3-(1-piperidinyl)naphthoquinone]	++
COc1cccc(NC2=C(N3CCCC3)C(=O)c3ccccc3C2=O)c1 [2-[(3-methoxyphenyl)amino]-3-(1-pyrrolidinyl)naphthoquinone]	++
COc1cccc(NC2=C(N3CCOCC3)C(=O)c3ccccc3C2=O)c1 [2-[(3-methoxyphenyl)amino]-3-(4-morpholinyl)naphthoquinone]	++
Cc1cccc(NC2=C(N3CCCC3)C(=O)c3ccccc3C2=O)c1 [2-[(3-methylphenyl)amino]-3-(1-pyrrolidinyl)naphthoquinone]	++
Cc1cccc(NC2=C(N3CCOCC3)C(=O)c3ccccc3C2=O)c1 [2-[(3-methylphenyl)amino]-3-(4-morpholinyl)naphthoquinone]	++
Cc1ccc2c(C)nc(Nc3nc(C)cc(O)n3)nc2c1 [2-[(4,7-dimethyl-2-quinazolinyl)amino]-6-methyl-4-pyrimidinol]	+
CC(=O)c1ccc(NC2=C(N3CCCC3)C(=O)c3ccccc3C2=O)cc1 [2-[(4-acetylphenyl)amino]-3-(1-pyrrolidinyl)naphthoquinone]	++
O=[N+]([O-])c1ccc(Nc2ccccc2O)c2nonc12 [2-[(7-nitro-2,1,3-benzoxadiazol-4-yl)amino]phenol]	++
Cc1ccccc1NC1=C(N)C(=O)c2ccccc2C1=O [2-amino-3-[(2-methylphenyl)amino]naphthoquinone]	+
O=C(NN1C(=O)C(=Cc2ccc(O)c(O)c2)SC1=S)c1ccccc1Br [2-bromo-N-[5-(3,4-dihydroxybenzylidene)-4-oxo-2-thioxo-1,3-thiazolidin-3-yl]benzamide]	+
CN(C)C1=C(Cl)C(=O)c2ccccc2C1=O [2-chloro-3-(dimethylamino)naphthoquinone]	++
CC(C)NC1=C(Cl)C(=O)c2ccccc2C1=O [2-chloro-3-(isopropylamino)naphthoquinone]	+
O=[N+]([O-])c1ccccc1NN=Cc1ccc(O)c(O)c1 [3,4-dihydroxybenzaldehyde (2-nitrophenyl)hydrazone]	++
C=CCN1C(=O)C(=Cc2cc(Cl)cc(Cl)c2O)SC1=S [3-allyl-5-(3,5-dichloro-2-hydroxybenzylidene)-2-thioxo-1,3-thiazolidin-4-one]	+
NN1C(=O)C(=Cc2ccc(O)c(O)c2)SC1=S [3-amino-5-(3,4-dihydroxybenzylidene)-2-thioxo-1,3-thiazolidin-4-one]	+
CCCCOc1cccc(C(=O)NC(=S)Nc2ccc(N(C)C)cc2)c1 [3-butoxy-N-({[4-(dimethylamino)phenyl]amino}carbonothioyl)benzamide]	+
CN(CCN(C)N=Cc1cccc([N+](=O)[O-])c1)N=Cc1cccc([N+](=O)[O-])c1 [3-nitrobenzaldehyde 1,2-ethanediyl(methylhydrazone)]	+
Cc1ccc2c(c1)-c1c(s[s+]c1SCC(=O)c1ccc([N+](=O)[O-])cc1)C(C)(C)N2.[Cl-] [4,4,8-trimethyl-1-{[2-(4-nitrophenyl)-2-oxoethyl]thio}-4,5-dihydro[1,2]dithiolo[3,4-c]quinolin-2-ium chloride]	++
O=[N+]([O-])c1ccc(Nc2ccc(O)cc2)c2nonc12 [4-[(7-nitro-2,1,3-benzoxadiazol-4-yl)amino]phenol]	++
CN1C(=O)C(=Cc2c(Cl)ccc([N+](=O)[O-])c2Cl)SC1=S [5-(2,6-dichloro-3-nitrobenzylidene)-3-methyl-2-thioxo-1,3-thiazolidin-4-one]	++
